For one compound, IC50 results are on record in patent US20090285774A1, “Hepatitis C Virus Inhibitors” (Bristol-Myers Squibb Company, priority 2008, published 2009).

The target of assay [1] is T1, HCV NS3/4A protease complex, J4L6S strain (1b genotype) (Hepatitis C virus genotype 1b, UniProt O92972, C1454S/C1711G).
T1 construct: DNA encoding the recombinant HCV NS3/4A protease complex (amino acids 1027 to 1711) for these strains; inferred from pET21b vector and Ni-NTA purification; made in house; host or cells: Escherichia coli BL21 (DE3), pET21b
T1 sequence (O92972 1027-1711 C1454S/C1711G, one chain of several): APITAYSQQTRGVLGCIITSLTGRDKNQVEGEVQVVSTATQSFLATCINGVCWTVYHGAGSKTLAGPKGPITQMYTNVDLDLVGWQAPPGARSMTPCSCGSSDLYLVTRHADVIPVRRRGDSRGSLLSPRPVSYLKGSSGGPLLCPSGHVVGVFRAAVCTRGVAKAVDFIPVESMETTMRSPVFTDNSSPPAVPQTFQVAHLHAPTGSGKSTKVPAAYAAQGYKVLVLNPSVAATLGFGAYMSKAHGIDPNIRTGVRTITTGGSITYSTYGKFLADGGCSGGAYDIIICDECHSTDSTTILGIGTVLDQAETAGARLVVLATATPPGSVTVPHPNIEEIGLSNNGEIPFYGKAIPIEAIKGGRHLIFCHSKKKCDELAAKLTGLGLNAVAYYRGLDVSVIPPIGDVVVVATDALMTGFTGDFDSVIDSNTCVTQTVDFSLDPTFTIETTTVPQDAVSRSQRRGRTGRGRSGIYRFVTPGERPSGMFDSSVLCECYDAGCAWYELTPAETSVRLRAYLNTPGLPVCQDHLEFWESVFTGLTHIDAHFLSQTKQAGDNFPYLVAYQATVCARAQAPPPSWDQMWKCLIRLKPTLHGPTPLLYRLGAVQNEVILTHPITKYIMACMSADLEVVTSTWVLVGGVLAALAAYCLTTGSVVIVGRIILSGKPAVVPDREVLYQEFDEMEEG
Briefly: FRET peptide assay to monitor HCV NS3/4A proteolytic activity (J4L6S strain). The assay is classed as biochemical. From the text:
(§1) HCV NS3 protease complexes, derived from the BMS strain, H77 strain or J4L6S strain, were generated, as described below. These purified recombinant proteins were generated for use in a homogeneous assay (see below) to provide an indication of how effective compounds of the present disclosure would be in inhibiting HCV NS3 proteolytic activity.
Serum from an HCV-infected patient was obtained from Dr. T. Wright, San Francisco Hospital. An engineered full-length cDNA (compliment deoxyribonucleic acid) template of the HCV genome (BMS strain) was constructed from DNA fragments obtained by reverse transcription-PCR (RT-PCR) of serum RNA (ribonucleic acid) and using primers selected on the basis of homology between other genotype 1a strains. From the determination of the entire genome sequence, a genotype 1a was assigned to the HCV isolate according to the classification of Simmonds et al. (See P Simmonds, K A Rose, S Graham, S W Chan, F McOmish, B C Dow, E A Follett, P L Yap and H Marsdeni, J. Clin. Microbiol., 31(6):1493-1503 (1993)). […]

In assay [2] the target is T2, HCV NS3/4A protease complex, BMS strain (genotype 1a) (UniProt P27958, species not given/STRAIN_BMS).
T2 construct: DNA encoding the recombinant HCV NS3/4A protease complex (amino acids 1027 to 1711) for these strains [given for H77 and J4L6S only]; These are given only for the H77 and J4L6S constructs
T2 sequence (P27958 1027-1657, stated change not applied, one chain of several): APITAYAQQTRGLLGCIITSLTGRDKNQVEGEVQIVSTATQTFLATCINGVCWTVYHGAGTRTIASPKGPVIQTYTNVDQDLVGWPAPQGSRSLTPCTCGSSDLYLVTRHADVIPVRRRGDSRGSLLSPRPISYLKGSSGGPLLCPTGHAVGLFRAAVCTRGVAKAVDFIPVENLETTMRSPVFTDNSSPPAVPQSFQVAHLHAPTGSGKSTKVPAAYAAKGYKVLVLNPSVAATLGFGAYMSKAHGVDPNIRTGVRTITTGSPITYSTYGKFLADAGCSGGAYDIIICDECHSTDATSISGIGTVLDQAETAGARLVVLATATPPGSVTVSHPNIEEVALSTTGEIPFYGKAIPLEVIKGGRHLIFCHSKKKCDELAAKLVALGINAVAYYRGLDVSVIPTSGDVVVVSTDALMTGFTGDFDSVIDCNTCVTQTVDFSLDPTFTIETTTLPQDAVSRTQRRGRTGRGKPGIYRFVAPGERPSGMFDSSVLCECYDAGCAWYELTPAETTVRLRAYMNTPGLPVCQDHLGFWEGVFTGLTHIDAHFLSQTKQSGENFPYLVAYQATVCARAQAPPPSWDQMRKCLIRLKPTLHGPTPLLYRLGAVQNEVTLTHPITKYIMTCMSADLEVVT
Put plainly: FRET peptide assay to monitor HCV NS3/4A proteolytic activity (BMS strain). The class given is biochemical.
Excerpt: as §1
Serum from an HCV-infected patient was obtained from Dr. T. Wright, San Francisco Hospital. An engineered full-length cDNA (compliment deoxyribonucleic acid) template of the HCV genome (BMS strain) was constructed from DNA fragments obtained by reverse transcription-PCR (RT-PCR) of serum RNA (ribonucleic acid) and using primers selected on the basis of homology between other genotype 1a strains. From the determination of the entire genome sequence, a genotype 1a was assigned to the HCV isolate according to the classification of Simmonds et al. (See P Simmonds, K A Rose, S Graham, S W Chan, F McOmish, B C Dow, E A Follett, P L Yap and H Marsdeni, J. Clin. Microbiol., 31(6):1493-1503 (1993)). […] The infectious clones, H77 (1a genotype) and J4L6S (1b genotype) were obtained from R. Purcell (NIH) and the sequences are published in Genbank (AAB67036, see Yanagi, M., Purcell, R. H., Emerson, S. U. and Bukh, J. Proc. Natl. Acad. Sci. U.S.A. 94(16):8738-8743 (1997); AF054247, see Yanagi, M., St Claire, M., Shapiro, M., Emerson, S. U., Purcell, R. H. and Bukh, J, Virology 244 (1), 161-172. (1998)).
The H77 and J4L6S strains were used for production of recombinant NS3/4A protease complexes. DNA encoding the recombinant HCV NS3/4A protease complex (amino acids 1027 to 1711) for these strains were manipulated as described by P. Gallinari et al. (see Gallinari P, Paolini C, Breruian D, Nardi C, Steinlkuhler C, De Francesco R. Biochemistry. 38(17);5620-32, (1999)). Briefly, a three-lysine solubilizing tail was added at the 3′-end of the NS4A coding region. The cysteine in the P1 position of the NS4A-NS4B cleavage site (amino acid 1711) was changed to a glycine to avoid the proteolytic cleavage of the lysine tag. Furthermore, a cysteine to serine mutation was introduced by PCR at amino acid position 1454 to prevent the autolytic cleavage in the NS3 helicase domain. The variant DNA fragment was cloned in the pET21b bacterial expression vector (Novagen) and the NS3/4A complex was expressed in Escherichia. coli strain BL21 (DE3) (Invitrogen) following the protocol described by P. Gallinari et al. (see Gallinari P, Breinan D, Nardi C, Brunetti M, Tomei L, Steinkuhler C, De Francesco R., J Virol. 72(8):6758-69 (1998)) with modifications. Briefly, the NS3/4A protease complex expression was induced with 0.5 millimolar (mM) Isopropyl β-D-1-thiogalactopyranoside (IPTG) for 22 hours (h) at 20° C. A typical fermentation (1 Liter (L)) yielded approximately 10 grams (g) of wet cell paste. The cells were resuspended in lysis buffer (10 mL/g) consisting of 25 mM N-(2-Hydroxyethyl)Piperazine-N′-(2-Ethane Sulfonic acid) (HEPES), pH 7.5, 20% glycerol, 500 mM Sodium Chloride (NaCl), 0.5% Triton X-100, 1 microgram/milliliter (“μg/mL”) lysozyme, 5 mM Magnesium Chloride (MgCl2), 1 μg/ml DnaseI, 5mM β-Mercaptoethanol (βME), Protease inhibitor-Ethylenediamine Tetraacetic acid (EDTA) free (Roche), homogenized and incubated for 20 minutes (min) at 4° C. The homogenate was sonicated and clarified by ultra-centrifugation at 235000 g for 1 hour (h) at 4° C. Imidazole was added to the supernatant to a final concentration of 15 mM and the pH adjusted to 8.0. The crude protein extract was loaded on a Nickel-Nitrilotriacetic acid (Ni-NTA) column pre-equilibrated with buffer B (25 mM HEPES, pH 8.0, 20% glycerol, 500 mM NaCl, 0.5% Triton X-100, 15 mM imidazole, 5 mM βMB). The sample was loaded at a flow rate of 1 mL/min. The column was washed with 15 column volumes of buffer C (same as buffer B except with 0.2% Triton X-100). The protein was eluted with 5 column volumes of buffer D (same as buffer C except with 200 mM Imidazole). […]

Read-outs that look alike come from different tables or passages of the source.

Take `C=C[C@@H]1C[C@]1(NC(=O)[C@@H]1C[C@@H](OC(=O)N2Cc3cccc(F)c3C2)CN1C(=O)C(Nc1cc(C)cc(C)n1)C(C)C)C(=O)NS(=O)(=O)C1CC1` (single isomer, unassigned) [Compound 2A]: the IC50 in assay [1] is 1.2 nM; in assay [2] (BMS strain, read-out: IC50 against the NS3/4A BMS strain in the enzyme assay), 8.9 nM; in assay [2] (NS3/4A BMS strain, activity range, read-out: IC50 (range or value)), 4 to 20 nM.
